{"source": "patent US7989466B2", "about": "“Methods to inhibit or augment an inflammatory response” (Cambridge Enterprise Limited, priority 1999, dated 2011)", "key": {"[1]": {"experiment": "Competition of 125I-MCP-1 binding to heparin-coated agarose beads", "conditions": "10^−11 to 10^−4 M", "text": "Chemokines bind to glycosaminoglycans on the cell surface, which may facilitate chemokine receptor binding and subsequent signaling. […] This was followed by a monophasic displacement curve at concentrations of approximately 10^−7 to 10^−5 M MCP-1."}, "∂-opioid receptors": {"target": "T1, ∂-opioid receptors (Homo sapiens, UniProt P41143)", "T1 construct": "purchased RBI/Sigma 0-116", "T1 sequence (P41143 whole entry)": "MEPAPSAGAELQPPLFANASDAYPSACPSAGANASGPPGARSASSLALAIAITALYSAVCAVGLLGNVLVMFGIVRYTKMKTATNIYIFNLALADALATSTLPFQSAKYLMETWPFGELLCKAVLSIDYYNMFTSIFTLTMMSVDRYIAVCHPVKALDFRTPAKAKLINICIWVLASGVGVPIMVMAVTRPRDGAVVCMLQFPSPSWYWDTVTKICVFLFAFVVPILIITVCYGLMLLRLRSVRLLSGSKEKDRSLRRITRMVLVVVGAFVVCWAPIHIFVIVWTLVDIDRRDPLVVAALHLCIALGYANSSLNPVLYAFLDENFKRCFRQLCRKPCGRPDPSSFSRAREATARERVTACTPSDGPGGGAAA", "experiment": "Opioid receptor membrane binding (3H-Diprenorphine)", "procedure": "For opioid receptor binding, membranes (0-116, RBI/Sigma) are diluted into binding buffer (75 mM Tris pH 7.4, 12.5 mM MgCl2 and 2 mM EDTA). For example, 10 μl of membranes are diluted in 500 μl of binding buffer (i.e., 1:50 dilution), which is aliquoted into labelled tubes. Cold competitor or test competitor is added (e.g. 5 μl of 100× stock solution; 5 μl of 100 μM naltrindole solution (N-115, RBI/Sigma in DMSO). Radioligand is then added (^3H-Diprenorphine, TRK 1060, Amersham, 250 μCi in 250 μl, 10.5 μM at 95 Ci/mmol). For competition studies, 0.5 nM is used. A 100× stock (i.e., […]) is made by diluting the commercial stock 1:210 in binding buffer, and 5 μl is added to every tube. Control tubes have radioligand but no membranes. The mixtures are vortexed, then spun very briefly. The mixtures are then incubated for 1 hour at 27° C. in a water bath. The mixture is filtered through GF/C filters over a vacuum. Each filter is pre-soaked in polyethyleneimine (0.3% in water; add 1 ml of 10% stock (P-261; RBI/Sigma) to 33 ml of MilliQ water). The tubes are washed with 2-3 ml of wash buffer (50 mM Tris pH 7.4) and the wash filtered. The filters are then rinsed with 3×5 ml of wash buffer, air dried, placed in a scintillation vial and 4.5 ml of scintillant added. The activity on the filter is then determined."}, "[2]": {"target": "T2, short splice variant D2 dopamine receptor (Homo sapiens, UniProt P14416)", "T2 construct": "purchased RBI/Sigma D-179", "T2 sequence (P14416 1-414 isoform P14416-2)": "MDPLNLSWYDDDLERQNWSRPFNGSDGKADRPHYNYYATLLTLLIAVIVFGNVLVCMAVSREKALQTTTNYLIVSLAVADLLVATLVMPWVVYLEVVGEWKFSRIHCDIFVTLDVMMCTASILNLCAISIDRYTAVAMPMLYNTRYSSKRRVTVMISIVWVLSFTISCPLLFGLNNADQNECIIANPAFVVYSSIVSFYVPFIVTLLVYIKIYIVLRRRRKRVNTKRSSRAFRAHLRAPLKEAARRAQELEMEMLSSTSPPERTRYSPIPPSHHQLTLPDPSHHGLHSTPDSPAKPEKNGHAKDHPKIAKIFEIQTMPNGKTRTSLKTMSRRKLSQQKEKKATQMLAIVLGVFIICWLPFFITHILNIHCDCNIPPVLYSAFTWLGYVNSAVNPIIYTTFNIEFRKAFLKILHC", "experiment": "Dopamine receptor membrane binding (3H-Spiperone)", "conditions": "100 μM highest concentration tested; read-out: ED50 for competition of spiperone binding to short splice variant D2 dopamine receptor", "procedure": "For dopamine receptor binding, membranes (D-179, RBI/Sigma) are diluted into binding buffer (75 mM Tris pH 7.4, 12.5 mM MgCl2 and 2 mM EDTA). For example, 10 μl of membranes are diluted in 500 μl of binding buffer (i.e., 1:50 dilution), which is aliquoted into labelled tubes. Cold competitor or test competitor is added, (e.g., 5 μl of 100× stock solution; 5 μl of 1 mM haloperidol solution (H-100, RBI/Sigma in DMSO). Radioligand is then added (3H-Spiperone, TRK 818, Amersham, 250 μCi in 250 μl, 10.5 μM at 95 Ci/mmol). For competition studies, 0.5 nM is used. A 100× stock (i.e., 50 nM) is made by diluting the commercial stock 1:210 in binding buffer, and 5 μl is added to every tube. Control tubes have radioligand but no membranes. The mixtures are vortexed, then spun very briefly. The mixtures are then incubated for 1 hour at 27° C. in a water bath. The mixture is filtered through GF/C filters over a vacuum. Each filter is pre-soaked in polyethyleneimine (0.3% in water; add 1 ml of 10% stock (P-261; RBI/Sigma) to 33 ml of MilliQ water). The tubes are washed with 2-3 ml of wash buffer (50 mM Tris pH 7.4) and the wash filtered. The filters are then rinsed with 3×5 ml of wash buffer, air dried, placed in a scintillation vial and 4.5 ml of scintillant added. The activity on the filter is then determined."}, "[3]": {"test_system": "chemokine receptors on the surface of Jurkat cells", "experiment": "Binding to chemokine receptors on Jurkat cells", "design": "species or system human", "procedure": "For Scatchard analysis, the absorbance readings at 450 nm were calibrated, by reference to a standard curve in which known amounts of labeled peptide were coupled to derivatized sepharose beads (activated thiol-sepharose 4B; Sigma T8512) via the cysteine residue in each peptide. Briefly, known amounts (1 fmol to 1 pmol) of biotin-labeled peptide were incubated with 1 mg of activated thiol-sepharose beads in 100 μl of PBS at 37° C. for 1 hour. Free activated thiols were then blocked by addition of cysteine to a final concentration of 10 mM. The peptide-conjugated beads were then washed 5 times in PBS and treated exactly as for the cells described above. The absorbance at 450 nm obtained when a known amount of peptide was coupled to the beads was used to construct a standard curve which was used to convert the absorbance readings obtained with cells into number of molecules of labeled peptide which had bound."}}, "note": "Positions of bridges follow the written chain, without caps; N, C: chain ends. Non-standard residues stand in square brackets, D forms with d. Residues, ends and D or L forms follow the SMILES beside them. No end group written: not given here.", "data": [{"compound": "CC[C@@H](C)[C@H]1NC(=O)[C@@H](CCC(N)=O)NC(=O)[C@H](N)CSSC[C@H](C(N)=O)NC(=O)[C@@H](CC(C)C)NC(=O)[C@@H](CC(=O)O)NC(=O)[C@H]2CCCN2C(=O)[C@@H](CCCCN)NC(=O)[C@@H](CCC(N)=O)NC(=O)[C@@H](CCCCN)NC(=O)[C@@H](Cc2c[nH]c3ccccc23)NC1=O", "note": "(H-[dC][dQ][dI][dW][dK][dQ][dK][dP][dD][dL][dC]-NH2; disulfide 1-11; N-terminus assumed)", "values": [{"measurement": "displacement of 125I-MCP-1 from heparin-coated agarose beads", "setting": "[1]", "value": "did not result in displacement"}, {"measurement": "EC50", "setting": "∂-opioid receptors", "value": "> 100", "unit": "µM"}]}, {"compound": "C=CCCCCCCCCC(=O)N[C@H]1CCC(=O)NC1=O", "note": "[A-I (NR58.4), [3S]-3-(undec-10-enoylamino)piperidine-2,6-dione]", "values": [{"measurement": "EC50", "setting": "[2]", "value": "> 100", "unit": "µM"}]}, {"compound": "SYRRITSSKCPKEAV [peptide 2(1-15)[MCP-1]]", "values": [{"measurement": "B, binding sites on Jurkat cells", "setting": "[3]", "value": "55,000 sites/cell"}, {"measurement": "Ka, chemokine receptors on the surface of Jurkat cells", "setting": "[3]", "value": 250, "unit": "nM"}]}]}
